≈ marks a conversion by molar mass, not a printed value.
Assays:
[1] = biological target: RAC-alpha serine/threonine-protein kinase (Homo sapiens, UniProt P31749); assay: Inhibition of AKT1
[2] = biological target: Protein kinase C theta type (Homo sapiens, UniProt Q04759); assay: Inhibition of PKCtheta
[3] = biological target: Cytochrome P450 2C9 (Homo sapiens, UniProt P11712); assay: Inhibition of CYP2C9 in human liver microsomes; type: ADME, Microsome
[4] = biological target: Serine/threonine-protein kinase PAK 3 (Homo sapiens, UniProt O75914); assay: Inhibition of PAK3
[5] = biological target: Serine/threonine-protein kinase pim-2 (Homo sapiens, UniProt Q9P1W9); assay: Inhibition of PIM2
[6] = biological target: Cytochrome P450 2D6 (Homo sapiens, UniProt P10635); assay: Inhibition of CYP2D6 in human liver microsomes; type: ADME, Microsome
[7] = biological target: Serine/threonine-protein kinase Chk1 (Homo sapiens, UniProt O14757); assay: Inhibition of CHK1
[8] = biological target: Ephrin type-B receptor 1 (Homo sapiens, UniProt P54762); assay: Inhibition of EPHB1
[9] = biological target: Ribosomal protein S6 kinase alpha-3 (Homo sapiens, UniProt P51812); assay: Inhibition of RPS6KA3
[10] = Clearance in Sprague-Dawley rat at 2 mg/kg, iv; type: ADME, organism-based; set-up: dose 2 mg/kg, route intravenous; conditions: in vivo
[11] = Initial plasma concentration in Sprague-Dawley rat at 2 mg/kg, iv; type: ADME, organism-based; set-up: dose 2 mg/kg, route intravenous
[12] = Volume of distribution at steady state in Sprague-Dawley rat at 2 mg/kg, iv; type: ADME, organism-based; set-up: dose 2 mg/kg, route intravenous; conditions: in vivo, read-out: Vdss
[13] = biological target: 5'-AMP-activated protein kinase catalytic subunit alpha-1 (Homo sapiens, UniProt Q13131); assay: Inhibition of AMPKA1
[14] = biological target: Glycogen synthase kinase-3 beta (Homo sapiens, UniProt P49841); assay: Inhibition of GSK3beta
[15] = biological target: 5'-AMP-activated protein kinase subunit gamma-1 (Homo sapiens, UniProt P54619); assay: Inhibition of AMPKG1
[16] = biological target: Cytochrome P450 2C19 (Homo sapiens, UniProt P33261); assay: Inhibition of CYP2C19 in human liver microsomes; type: ADME, Microsome
[17] = Half life in Sprague-Dawley rat at 10 mg/kg, po; type: ADME, organism-based; set-up: dose 10 mg/kg, route oral; conditions: in vivo
[18] = biological target: High affinity nerve growth factor receptor (Homo sapiens, UniProt P04629); assay: Inhibition of NTRK1
[19] = Solubility of the compound in 10% aqueous Solutol; type: physicochemical
[20] = biological target: Tyrosine-protein kinase ABL1 (Homo sapiens, UniProt P00519); assay: Inhibition of ABL1
[21] = Permeability from apical to basolateral side in human Caco2 cells; type: ADME, cell-based; conditions: Caco-2, read-out: permeability
[22] = biological target: Tyrosine-protein kinase JAK2 (Homo sapiens, UniProt O60674); assay: Inhibition of JAK2
[23] = Oral bioavailability in Sprague-Dawley rat at 10 mg/kg; type: ADME, organism-based; conditions: in vivo
[24] = biological target: Activin receptor type-1B (Homo sapiens, UniProt P36896); assay: Inhibition of ALK4
[25] = biological target: Serine/threonine-protein kinase PLK3 (Homo sapiens, UniProt Q9H4B4); assay: Inhibition of PLK3
[26] = biological target: cAMP-dependent protein kinase catalytic subunit alpha (Homo sapiens, UniProt P17612); assay: Inhibition of PRKACA
[27] = Metabolic stability of the compound in rat liver microsomes assessed as compound remaining after 10 mins; type: ADME, Microsome; conditions: read-out: Stability
[28] = biological target: Rho-associated protein kinase 1 (Homo sapiens, UniProt Q13464); assay: Inhibition of ROCK1
[29] = biological target: Aurora kinase A (Homo sapiens, UniProt O14965); assay: Inhibition of Aurora A
[30] = biological target: Mitogen-activated protein kinase 13 (Homo sapiens, UniProt O15264); assay: Inhibition of p38delta
[31] = biological target: Serine/threonine-protein kinase Chk2 (Homo sapiens, UniProt O96017); assay: Inhibition of CHK2
[32] = biological target: Serine/threonine-protein kinase 26 (Homo sapiens, UniProt Q9P289); assay: Inhibition of MST4
[33] = biological target: Cyclin-dependent kinase 1/cyclin B1 (Homo sapiens, UniProt P06493); assay: Inhibition of CDK1/cyclin B; type: protein-complex assay
[34] = Cmax in Sprague-Dawley rat at 10 mg/kg, po; type: ADME, organism-based; set-up: dose 10 mg/kg, route oral; conditions: in vivo
[35] = Metabolic stability of the compound in human liver microsomes assessed as compound remaining after 10 mins; type: ADME, Microsome; conditions: read-out: Stability
[36] = biological target: Calcium/calmodulin-dependent protein kinase type 1D (Homo sapiens, UniProt Q8IU85); assay: Inhibition of CAMK1D
[37] = biological target: Cytochrome P450 3A4 (Homo sapiens, UniProt P08684); assay: Inhibition of CYP3A4 in human liver microsomes; type: ADME, Microsome
[38] = biological target: Interleukin-1 receptor-associated kinase 4 (Homo sapiens, UniProt Q9NWZ3); assay: Inhibition of IRAK4
[39] = biological target: Death-associated protein kinase 3 (Homo sapiens, UniProt O43293); assay: Inhibition of DAPK3
[40] = biological target: Cytochrome P450 1A2 (Homo sapiens, UniProt P05177); assay: Inhibition of CYP1A2 in human liver microsomes; type: ADME, Microsome
[41] = biological target: Proto-oncogene tyrosine-protein kinase Src (Homo sapiens, UniProt P12931); assay: Inhibition of SRC
[42] = biological target: Calcium/calmodulin-dependent protein kinase type II subunit alpha (Homo sapiens, UniProt Q9UQM7); assay: Inhibition of CAMK2A
[43] = biological target: T1, Ketohexokinase (Homo sapiens, UniProt P50053); assay: Inhibition of ketokinase isoform C in human HepG2 cells assessed as levels of fructose-1-phosphate preincubated for 30 mins followed by substrate addition measured after 3 hrs by LC-MS analysis; type: cell-based
T1 sequence (P50053 whole entry): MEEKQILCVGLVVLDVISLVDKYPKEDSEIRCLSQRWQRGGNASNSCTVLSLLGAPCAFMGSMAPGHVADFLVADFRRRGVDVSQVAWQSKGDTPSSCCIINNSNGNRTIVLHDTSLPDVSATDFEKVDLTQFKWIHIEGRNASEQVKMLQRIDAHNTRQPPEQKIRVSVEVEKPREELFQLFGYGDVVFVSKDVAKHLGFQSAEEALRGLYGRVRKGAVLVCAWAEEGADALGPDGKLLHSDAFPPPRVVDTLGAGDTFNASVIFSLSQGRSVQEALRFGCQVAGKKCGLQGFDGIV

[44] = biological target: Serine/threonine-protein kinase Nek2 (Homo sapiens, UniProt P51955); assay: Inhibition of NEK2
[45] = Half life in Sprague-Dawley rat at 2 mg/kg, iv; type: ADME, organism-based; set-up: dose 2 mg/kg, route intravenous; conditions: in vivo
[46] = biological target: 5'-AMP-activated protein kinase subunit beta-1 (Homo sapiens, UniProt Q9Y478); assay: Inhibition of AMPKB1
[47] = Permeability from basolateral to apical side in human Caco2 cells; type: ADME, cell-based; conditions: Caco-2, read-out: permeability

Sequence of Serine/threonine-protein kinase Nek2 (P51955 whole entry): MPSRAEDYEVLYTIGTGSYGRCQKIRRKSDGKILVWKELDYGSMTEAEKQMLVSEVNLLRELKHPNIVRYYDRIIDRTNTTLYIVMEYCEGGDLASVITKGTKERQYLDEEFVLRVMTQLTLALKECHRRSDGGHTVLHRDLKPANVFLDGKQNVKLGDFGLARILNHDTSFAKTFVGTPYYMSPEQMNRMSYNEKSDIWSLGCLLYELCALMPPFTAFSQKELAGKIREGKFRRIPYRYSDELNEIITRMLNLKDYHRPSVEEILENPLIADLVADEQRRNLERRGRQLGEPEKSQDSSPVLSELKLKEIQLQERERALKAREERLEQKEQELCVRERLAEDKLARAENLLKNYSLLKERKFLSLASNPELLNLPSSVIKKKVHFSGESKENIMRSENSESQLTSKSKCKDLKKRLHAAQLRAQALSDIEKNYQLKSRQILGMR
Sequence of Calcium/calmodulin-dependent protein kinase type 1D (Q8IU85 whole entry): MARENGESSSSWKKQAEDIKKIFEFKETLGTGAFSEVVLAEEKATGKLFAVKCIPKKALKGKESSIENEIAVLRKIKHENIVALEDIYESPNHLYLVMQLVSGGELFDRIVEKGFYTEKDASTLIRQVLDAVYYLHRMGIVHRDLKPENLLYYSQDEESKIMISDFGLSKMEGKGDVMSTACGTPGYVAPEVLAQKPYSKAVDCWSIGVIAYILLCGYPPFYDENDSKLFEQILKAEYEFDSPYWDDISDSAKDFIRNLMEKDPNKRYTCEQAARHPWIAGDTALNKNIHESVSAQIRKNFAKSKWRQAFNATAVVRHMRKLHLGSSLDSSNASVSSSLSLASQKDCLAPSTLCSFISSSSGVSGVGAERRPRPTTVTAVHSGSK
Sequence of Ribosomal protein S6 kinase alpha-3 (P51812 whole entry): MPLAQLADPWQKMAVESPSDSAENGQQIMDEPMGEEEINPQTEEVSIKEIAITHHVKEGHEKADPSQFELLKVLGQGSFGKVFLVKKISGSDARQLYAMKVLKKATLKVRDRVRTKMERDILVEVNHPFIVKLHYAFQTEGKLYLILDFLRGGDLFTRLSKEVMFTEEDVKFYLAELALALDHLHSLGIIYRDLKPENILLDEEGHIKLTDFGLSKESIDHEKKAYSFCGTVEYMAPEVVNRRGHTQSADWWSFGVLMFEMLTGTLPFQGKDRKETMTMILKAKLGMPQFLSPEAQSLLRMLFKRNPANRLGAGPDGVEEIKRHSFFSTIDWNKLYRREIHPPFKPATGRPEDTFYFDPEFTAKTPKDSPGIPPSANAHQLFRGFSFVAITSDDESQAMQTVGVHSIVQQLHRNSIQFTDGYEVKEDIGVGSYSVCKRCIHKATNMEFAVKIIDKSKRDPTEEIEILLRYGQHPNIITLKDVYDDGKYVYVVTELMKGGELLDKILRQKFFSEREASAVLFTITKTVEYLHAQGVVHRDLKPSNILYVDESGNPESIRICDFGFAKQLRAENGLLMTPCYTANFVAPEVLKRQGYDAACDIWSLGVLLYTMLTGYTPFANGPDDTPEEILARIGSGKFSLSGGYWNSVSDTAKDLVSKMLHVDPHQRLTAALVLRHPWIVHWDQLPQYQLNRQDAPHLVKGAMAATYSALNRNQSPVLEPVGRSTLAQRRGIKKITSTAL
Sequence of 5'-AMP-activated protein kinase subunit beta-1 (Q9Y478 whole entry): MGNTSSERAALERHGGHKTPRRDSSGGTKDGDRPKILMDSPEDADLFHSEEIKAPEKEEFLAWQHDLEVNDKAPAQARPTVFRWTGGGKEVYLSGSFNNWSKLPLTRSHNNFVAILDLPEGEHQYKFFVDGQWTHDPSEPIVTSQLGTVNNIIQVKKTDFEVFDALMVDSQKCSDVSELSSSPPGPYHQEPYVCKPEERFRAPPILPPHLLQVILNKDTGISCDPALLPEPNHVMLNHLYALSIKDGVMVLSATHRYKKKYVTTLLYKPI
Sequence of Cyclin-dependent kinase 1/cyclin B1 (P06493 whole entry): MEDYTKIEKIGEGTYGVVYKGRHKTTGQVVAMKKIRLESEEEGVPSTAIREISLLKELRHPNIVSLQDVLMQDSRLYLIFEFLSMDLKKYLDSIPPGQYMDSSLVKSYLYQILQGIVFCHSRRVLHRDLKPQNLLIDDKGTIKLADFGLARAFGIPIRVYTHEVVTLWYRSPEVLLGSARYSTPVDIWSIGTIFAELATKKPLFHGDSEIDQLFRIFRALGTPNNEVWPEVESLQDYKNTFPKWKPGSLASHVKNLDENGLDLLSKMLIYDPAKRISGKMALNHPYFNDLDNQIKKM
Sequence of Cyclin-dependent kinase 1/cyclin B1 (P14635 whole entry, further chain): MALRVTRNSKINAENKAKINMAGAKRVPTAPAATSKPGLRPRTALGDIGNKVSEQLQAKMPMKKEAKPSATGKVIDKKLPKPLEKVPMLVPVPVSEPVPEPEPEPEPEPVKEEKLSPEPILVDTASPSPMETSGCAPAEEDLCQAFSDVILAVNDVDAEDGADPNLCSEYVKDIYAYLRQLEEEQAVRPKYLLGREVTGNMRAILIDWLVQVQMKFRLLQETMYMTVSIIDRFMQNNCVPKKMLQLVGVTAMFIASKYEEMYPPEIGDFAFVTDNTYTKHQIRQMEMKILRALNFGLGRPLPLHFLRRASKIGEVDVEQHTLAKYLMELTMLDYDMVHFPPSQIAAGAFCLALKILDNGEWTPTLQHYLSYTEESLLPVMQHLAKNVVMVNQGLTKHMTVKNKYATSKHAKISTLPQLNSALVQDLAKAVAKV
Sequence of Rho-associated protein kinase 1 (Q13464 whole entry): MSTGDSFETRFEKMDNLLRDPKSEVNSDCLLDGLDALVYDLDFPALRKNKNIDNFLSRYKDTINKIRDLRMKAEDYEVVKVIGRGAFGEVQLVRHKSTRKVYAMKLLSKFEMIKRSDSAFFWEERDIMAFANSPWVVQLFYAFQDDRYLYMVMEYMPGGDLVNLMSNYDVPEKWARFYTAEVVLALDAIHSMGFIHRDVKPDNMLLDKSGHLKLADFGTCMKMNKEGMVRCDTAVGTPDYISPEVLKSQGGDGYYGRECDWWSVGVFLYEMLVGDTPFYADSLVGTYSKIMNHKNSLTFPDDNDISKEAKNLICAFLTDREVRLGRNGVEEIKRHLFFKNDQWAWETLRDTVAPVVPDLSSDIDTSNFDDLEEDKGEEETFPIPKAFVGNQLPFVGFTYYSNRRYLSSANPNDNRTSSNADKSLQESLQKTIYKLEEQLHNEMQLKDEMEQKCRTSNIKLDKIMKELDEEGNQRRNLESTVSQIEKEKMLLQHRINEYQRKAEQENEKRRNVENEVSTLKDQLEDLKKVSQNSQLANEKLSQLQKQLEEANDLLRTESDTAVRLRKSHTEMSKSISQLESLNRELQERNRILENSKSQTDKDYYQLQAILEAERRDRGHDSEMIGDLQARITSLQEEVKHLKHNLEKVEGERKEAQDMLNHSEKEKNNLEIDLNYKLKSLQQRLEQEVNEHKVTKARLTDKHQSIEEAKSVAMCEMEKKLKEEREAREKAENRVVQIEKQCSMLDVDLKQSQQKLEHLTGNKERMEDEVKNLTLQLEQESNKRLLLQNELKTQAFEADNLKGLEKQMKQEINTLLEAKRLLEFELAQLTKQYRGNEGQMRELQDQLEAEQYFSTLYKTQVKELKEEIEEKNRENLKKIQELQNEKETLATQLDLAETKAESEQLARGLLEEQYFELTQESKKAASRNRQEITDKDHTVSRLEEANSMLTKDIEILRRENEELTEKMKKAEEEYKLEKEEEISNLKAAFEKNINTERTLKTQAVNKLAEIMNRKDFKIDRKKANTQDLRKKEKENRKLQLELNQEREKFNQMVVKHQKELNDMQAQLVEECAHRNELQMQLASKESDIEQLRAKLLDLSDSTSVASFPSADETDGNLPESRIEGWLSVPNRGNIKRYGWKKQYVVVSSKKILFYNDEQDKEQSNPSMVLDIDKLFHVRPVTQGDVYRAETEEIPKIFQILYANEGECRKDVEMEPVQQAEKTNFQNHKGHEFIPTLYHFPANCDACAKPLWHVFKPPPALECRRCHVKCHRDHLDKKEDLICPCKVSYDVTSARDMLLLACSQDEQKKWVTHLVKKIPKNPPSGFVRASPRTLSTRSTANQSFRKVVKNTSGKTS
Sequence of Serine/threonine-protein kinase pim-2 (Q9P1W9 whole entry): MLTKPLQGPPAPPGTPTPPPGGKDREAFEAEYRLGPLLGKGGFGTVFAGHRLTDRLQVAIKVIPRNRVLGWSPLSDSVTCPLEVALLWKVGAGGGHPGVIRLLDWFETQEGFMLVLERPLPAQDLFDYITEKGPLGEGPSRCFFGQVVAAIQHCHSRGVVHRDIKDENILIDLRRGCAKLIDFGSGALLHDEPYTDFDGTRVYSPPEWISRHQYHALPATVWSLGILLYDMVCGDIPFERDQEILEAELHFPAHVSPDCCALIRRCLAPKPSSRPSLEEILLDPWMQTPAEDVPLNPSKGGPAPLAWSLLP
Sequence of Cytochrome P450 1A2 (P05177 whole entry): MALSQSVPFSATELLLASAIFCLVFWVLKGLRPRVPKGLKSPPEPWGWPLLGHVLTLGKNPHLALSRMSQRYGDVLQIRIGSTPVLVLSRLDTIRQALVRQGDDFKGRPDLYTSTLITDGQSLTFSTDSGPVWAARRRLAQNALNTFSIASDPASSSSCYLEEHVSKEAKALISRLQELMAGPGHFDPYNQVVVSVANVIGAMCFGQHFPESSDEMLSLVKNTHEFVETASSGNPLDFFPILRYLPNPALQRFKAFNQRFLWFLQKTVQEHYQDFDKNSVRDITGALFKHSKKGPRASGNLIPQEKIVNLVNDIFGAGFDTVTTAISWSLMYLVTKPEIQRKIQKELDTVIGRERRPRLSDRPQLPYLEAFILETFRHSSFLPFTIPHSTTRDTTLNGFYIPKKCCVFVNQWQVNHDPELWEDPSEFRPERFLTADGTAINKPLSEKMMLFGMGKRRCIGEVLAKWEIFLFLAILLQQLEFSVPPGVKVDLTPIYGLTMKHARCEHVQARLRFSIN

With `CSc1ccccc1Nc1nc(N2CCNCC2)nc2c(NCC3CC3)ncnc12` the IC50 [1] was over 40 µM, the IC50 [2] was over 40 µM and the “inhibition (INH)” value [3] was “Not Active”. For the same compound, the IC50 [4] was over 40 µM, the IC50 [5] was over 40 µM and the “inhibition (INH)” value [6] was “Not Active”. It also gave an IC50 [7] of over 40 µM, an IC50 [8] of over 40 µM and an IC50 [9] of over 40 µM. It also gave a clearance [10] of 160 mL/min/kg, a C0 [11] of 600 nM and a Vd [12] of 32 L/kg. For the same compound, the IC50 [13] was over 40 µM, the IC50 [14] was over 40 µM and the IC50 [15] was over 40 µM. For the same compound, the “inhibition (INH)” value [16] was “Not Active”, the half-life [17] was 240 min and the IC50 [18] was over 40 µM. It also gave a solubility [19] of 1500 µg/mL (≈ 3.55 mM), an IC50 [20] of over 40 µM and a Papp A→B [21] of 0.3 ×10⁻⁶ cm/s. For the same compound, the IC50 [22] was over 40 µM, the bioavailability [23] was 34% and the IC50 [24] was over 40 µM. It also gave an IC50 [25] of over 40 µM, an IC50 [26] of over 40 µM and a remaining at 10 min [27] of 72%. For the same compound, the IC50 [28] was over 40 µM, the IC50 [29] was over 40 µM and the IC50 [30] was over 40 µM. For the same compound, the IC50 [31] was over 40 µM, the IC50 [32] was over 40 µM and the IC50 [33] was over 40 µM. It also gave a Cmax [34] of 160 nM, a remaining at 10 min [35] of 88% and an IC50 [36] of over 40 µM. For the same compound, the “inhibition (INH)” value [37] was “Not Active”, the IC50 [38] was over 40 µM and the IC50 [39] was over 40 µM. The “inhibition (INH)” value [40] was “Not Active”, the IC50 [41] was over 40 µM and the IC50 [42] was over 40 µM. For the same compound, the IC50 [43] was 400 nM, the IC50 [44] was over 40 µM and the half-life [45] was 120 min. It also gave an IC50 [46] of over 40 µM and a Papp B→A [47] of 1 ×10⁻⁶ cm/s.

Source: ChEMBL document CHEMBL2016462, “Inhibitors of Ketohexokinase: Discovery of Pyrimidinopyrimidines with Specific Substitution that Complements the ATP-Binding Site” (ACS Med Chem Lett, 2011)
